{"source": "paper PMC3064100", "about": "(Diabetes, 2011)", "type_in_all_cases": "in vivo, human", "conditions_in_all_cases": "i.v. infusion over 360 min, type 2 diabetic patients", "key": {"[1]": {"test_system": "patients with type 2 diabetes", "test": "Capillary plasma glucose during 360-min intravenous infusion"}, "[2]": {"test_system": "patients with type 2 diabetes", "test": "Insulin secretion rates by deconvolution of C-peptide"}, "[3]": {"test_system": "patients with type 2 diabetes", "test": "Plasma glucagon during 360-min intravenous infusion"}, "[4]": {"test_system": "patients with type 2 diabetes", "test": "Plasma free"}}}
{"smiles": "CC[C@H](C)[C@H](NC(=O)[C@H](CO)NC(=O)[C@H](Cc1ccc(O)cc1)NC(=O)[C@H](CC(=O)O)NC(=O)[C@H](CO)NC(=O)[C@@H](NC(=O)[C@H](Cc1ccccc1)NC(=O)[C@@H](NC(=O)CNC(=O)[C@H](CCC(=O)O)NC(=O)[C@H](C)NC(=O)[C@@H](N)Cc1ccc(O)cc1)[C@@H](C)O)[C@@H](C)CC)C(=O)N[C@@H](C)C(=O)N[C@@H](CCSC)C(=O)N[C@@H](CC(=O)O)C(=O)N[C@@H](CCCCN)C(=O)N[C@H](C(=O)N[C@@H](Cc1c[nH]cn1)C(=O)N[C@@H](CCC(N)=O)C(=O)N[C@@H](CCC(N)=O)C(=O)N[C@@H](CC(=O)O)C(=O)N[C@@H](Cc1ccccc1)C(=O)N[C@H](C(=O)N[C@@H](CC(N)=O)C(=O)N[C@@H](Cc1c[nH]c2ccccc12)C(=O)N[C@@H](CC(C)C)C(=O)N[C@@H](CC(C)C)C(=O)N[C@@H](C)C(=O)N[C@@H](CCC(N)=O)C(=O)N[C@@H](CCCCN)C(=O)NCC(=O)N[C@@H](CCCCN)C(=O)N[C@@H](CCCCN)C(=O)N[C@@H](CC(N)=O)C(=O)N[C@@H](CC(=O)O)C(=O)N[C@@H](Cc1c[nH]c2ccccc12)C(=O)N[C@@H](CCCCN)C(=O)N[C@@H](Cc1c[nH]cn1)C(=O)N[C@@H](CC(N)=O)C(=O)N[C@H](C(=O)N[C@H](C(=O)N[C@@H](CCC(N)=O)C(=O)O)[C@@H](C)O)[C@@H](C)CC)C(C)C)[C@@H](C)CC", "note": "[GIP, glucose-dependent insulinotropic polypeptide]", "values": [{"measurement": "Effect on glucose concentrations", "setting": "[1]", "result": "slight reduction"}, {"measurement": "Effect on insulin secretion (words; insulin, C-peptide, insulin secretory rates)", "setting": "[2]", "result": "hardly did so"}, {"measurement": "Effect on glucagon concentrations", "setting": "[3]", "result": "tended to increase slightly"}, {"measurement": "Effect on plasma concentrations of free fatty acids", "setting": "[4]", "result": "did not alter"}]}
